For one test, the system named is p53. Nature of the test: Western blot for p53 and downstream targets in RKO cells treated with peptides. It is filed as cell-based, human. As to conditions: RKO cells. A general note: A western blot detects proteins with antibodies after separation by electrophoresis.
The test system of test [1] is MIA-PaCa-2 pancreatic cancer cells. Kind of test: MIA-PaCa-2 cell colony formation assay (peptides). The class given is cell-based, human. As to conditions: miaPaCa2 cells (mutant p53); 10 μM for 20 minutes then 0.25 ng/mL doxorubicin 18 hours (FIG. 37D). The text has this: […] […] After colonies formed they were fixed (i.e., using 7:1 MeOH:glacial acetic acid) and stained with crystal violet.

A further test concerns MCF7 tumor spheres. Nature of the test: MCF7 tumor sphere assay. It is filed as cell-based, human. The following applies: MCF7 cells; 5 μM; 6.25 ng/mL doxorubicin; 7 days (FIGS. 34E, 34F). Here is the method: For the experiments shown in FIG. 34E, MCF7 cells were plated at a density of 20,000 cells per well using 2 mL Mammocult media in 6-well ultra-low adherent plates. The following day, cells were treated with Pen-Ctrl or Pen-Pep8 at a concentration of 5 μM. Peptides were added to each well for 20 minutes followed by 6.25 ng/mL doxorubicin. Cells were grown for 7 days and then the number of tumor spheres that were larger than 50 μm in diameter were counted (i.e., 20 10× photos were randomly taken and tumor spheres counted from the digital photos). For the graph shown in FIG. 34F, statistical analysis was performed using the student's t-test (n=3; *p≤0.05).
For the experiments shown in FIG. 36C, MCF7 cells were plated at a density of 20,000 cells per well using 2 mL Mammocult media in 6-well ultra-low adherent plates. The following day, cells were treated with 150 nM Cyc-Ctrl or Cyc-Pep8 (SEQ ID NO:5). 150 nM Cyc-Ctr/Pep8 was incubated in 100 μL serum-free DMEM with 3 μg PEP1 for 25 minutes before being added to the cells. After 20 minutes, 3.125 ng/mL doxorubicin was added to the cells for 7 days. Cells were grown for 7 days and then tumor spheres were counted that were larger than 50 μm in diameter (i.e., 20 10× photos were randomly taken and tumor spheres were counted from the digital photos).

Another test concerns RKO tumor xenograft. Nature of the test: RKO tumor xenograft model in nude mice. The class given is in vivo. The protocol: 6-week-old female nude mice were used for the xenograft study (FIG. 35A). 1×10^6 RKO cells in a 1:1 mixture of matrigel:DMEM (serum-free) were injected into the right flank of the nude mice. After tumors had grown to a size of about 100 mm^3, treatment with either Pen-Ctrl or Pen-Pep8 (5 μM in 50 μL sterile PBS) was administered by intratumoral injection every 2 days for 2 weeks. After treatment, the animals were sacrificed and tumors were excised, measured, and weighed followed by being flash frozen (n=6 for each group). Xenograft volume over the course of treatment and final tumor weight after the animals were sacrificed are shown in FIGS. 35B and 35C, respectively. Furthermore, pieces of the frozen xenografts were cut using a sterile scalpel and then the tumor tissue was lysed and lysate was run on a 10% SDS-PAGE gel followed by Western blotting for Puma, p53, and actin.

A further test deals with p53 (mutant). Nature of the test: Western blot for mutant p53 in miaPaCa2 cells treated with Pen-Pep8. It is filed as cell-based. The following applies: 2.5 μM for 30 minutes then 6.25 ng/mL doxorubicin 18 hours (FIG. 37C). The protocol:
For the experiments shown in FIG. 37C, 2×10^5 miaPaCa2 cells per well were plated the day before in a 6-well plate. The following day, the cells were treated with 2.5 μM Pen-Ctrl (SEQ ID NO:10) or Pen-Pep8 (SEP ID NO:50) for 30 minutes then treated with 6.25 ng/mL doxorubicin for 18 hours. The following the day, the cells were harvested with 350 μL 1×SDS-lysis buffer and 20 μL of lysate was loaded per well onto a 10% SDS-PAGE gel followed by Western blot for total eIF4E, p-eIF4E (Ser209), p53 (mutant), and actin.

We go through one sequence from patent US11505574B2, “Modulation of P53 for the treatment of cancer” (THE REGENTS OF THE UNIVERSITY OF CALIFORNIA, priority 2016, dated 2022).

As to “RQIKIWFQNRRMKWKKYPYAASPA [Pen-Pep8, Penetratin fused to Pep8]”, the “sensitization to low-dose etoposide (p53 Western blot)” value in the test on p53 (1.5 μM for 20 minutes then 0.125 ng/mL etoposide 18 hours (FIG. 34I)) was “also to low-dose etoposide”. Further, the “sensitization to low-dose doxorubicin (p53 Western blot)” value in the test with p53 (1.5 μM for 20 minutes then 6.25 ng/mL doxorubicin 18 hours (FIG. 34I)) is “sensitized to low-dose doxorubicin”. For the same sequence, the “p53 expression with low dose doxorubicin (Western blot)” value with p53 (2.5 μM for 20 minutes then 6.25 ng/mL doxorubicin 18 hours (FIG. 34A)) is given as “robust p53 expression”. In addition, the “p53 expression (Western blot)” value in the test with p53 (2.5 μM, 18 hours (FIG. 32B)) was “induced p53 expression”. Further, the “colony formation, sensitization to low-dose doxorubicin” value in test [1] is reported as “sensitized to low-dose doxorubicin”. For the same sequence, in the test on MCF7 tumor spheres, the “number of tumor spheres larger than 50 μm in diameter, sensitization to low dose doxorubicin” value is given as “sensitized cells to low dose doxorubicin”. In the test on RKO tumor xenograft (female nude mice, 5 μM in 50 μL PBS, intratumoral injection every 2 days for 2 weeks, versus Pen-Ctrl (FIGS. 35A-35C)), the “RKO tumor cell growth in a xenograft model (tumor volume, tumor weight)” value is listed as “inhibited RKO tumor cell growth”. In addition, in the test with RKO tumor xenograft (lysate from RKO xenograft tumors after treatment, versus Pen-Ctrl (FIG. 35D)), the “p53 and Puma protein expression in xenograft tumors (Western blot)” value is on record as “increased p53 protein expression, as well as its target, Puma”. Also, the “mutant p53 expression (Western blot)” value in the test with p53 (mutant) was “decreased mutant p53 expression”.
